Source: publication PMC4685510, “A Cell Biologist’s Field Guide to Aurora Kinase Inhibitors” (Frontiers in Oncology, 2015)

Columns and labels:
Test in all cases: biochemical
Type in all cases: biochemical
[1] = target: T1, 363 human kinases (including Aurora A/B/C) (Homo sapiens, UniProt Q99683); details: ASK1/MAP3K5, [ATP] 100 µM; for remaining activity at 0.1 µM: 100 nM; for remaining activity at 0.1 µM / remaining activity at 0.5 µM: read-out: % Enzyme Activity (relative to DMSO controls)
T1 sequence (Q99683 1-1374): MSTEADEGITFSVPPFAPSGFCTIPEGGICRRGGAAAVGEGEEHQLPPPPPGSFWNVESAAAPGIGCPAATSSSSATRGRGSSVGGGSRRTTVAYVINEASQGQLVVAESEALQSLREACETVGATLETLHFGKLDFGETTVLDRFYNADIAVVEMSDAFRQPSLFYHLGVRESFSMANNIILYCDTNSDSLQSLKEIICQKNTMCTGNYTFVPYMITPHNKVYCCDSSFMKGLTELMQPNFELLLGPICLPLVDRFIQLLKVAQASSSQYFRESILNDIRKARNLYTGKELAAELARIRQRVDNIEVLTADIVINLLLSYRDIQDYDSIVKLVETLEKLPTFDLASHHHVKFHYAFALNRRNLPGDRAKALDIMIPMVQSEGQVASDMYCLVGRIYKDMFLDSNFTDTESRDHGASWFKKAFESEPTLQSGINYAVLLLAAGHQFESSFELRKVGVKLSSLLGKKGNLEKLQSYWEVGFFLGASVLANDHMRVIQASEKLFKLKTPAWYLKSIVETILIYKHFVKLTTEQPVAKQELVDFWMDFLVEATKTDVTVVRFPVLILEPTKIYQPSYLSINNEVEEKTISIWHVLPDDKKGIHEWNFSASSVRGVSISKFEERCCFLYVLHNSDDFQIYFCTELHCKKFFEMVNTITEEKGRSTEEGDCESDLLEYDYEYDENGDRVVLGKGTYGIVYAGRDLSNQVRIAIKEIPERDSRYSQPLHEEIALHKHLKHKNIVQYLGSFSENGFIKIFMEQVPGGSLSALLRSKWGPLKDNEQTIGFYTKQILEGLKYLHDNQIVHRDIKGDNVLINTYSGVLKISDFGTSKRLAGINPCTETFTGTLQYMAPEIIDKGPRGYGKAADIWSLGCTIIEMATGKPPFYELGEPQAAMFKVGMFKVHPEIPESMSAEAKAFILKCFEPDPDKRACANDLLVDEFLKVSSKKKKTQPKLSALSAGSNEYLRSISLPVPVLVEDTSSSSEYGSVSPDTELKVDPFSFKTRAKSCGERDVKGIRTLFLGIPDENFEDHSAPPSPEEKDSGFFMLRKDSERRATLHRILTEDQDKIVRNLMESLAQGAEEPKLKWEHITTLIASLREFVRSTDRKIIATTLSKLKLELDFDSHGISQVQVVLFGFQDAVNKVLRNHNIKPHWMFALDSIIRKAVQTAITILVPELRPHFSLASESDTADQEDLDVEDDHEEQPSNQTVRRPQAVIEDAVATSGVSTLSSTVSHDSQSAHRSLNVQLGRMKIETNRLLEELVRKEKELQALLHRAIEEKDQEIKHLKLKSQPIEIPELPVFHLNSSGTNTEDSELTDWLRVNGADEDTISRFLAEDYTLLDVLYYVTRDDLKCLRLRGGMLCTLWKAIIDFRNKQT
Description: (§1) However, the Aurora A/B selectivity ratios derived from our in vitro and in vivo data can be compared to prioritize inhibitors.

[2] = target: 363 human kinases (including Aurora A/B/C) (Homo sapiens, UniProt Q06187); details: BTK, [ATP] 50 µM; for remaining activity at 0.1 µM: 100 nM; for remaining activity at 0.1 µM / remaining activity at 0.5 µM: read-out: % Enzyme Activity (relative to DMSO controls)
Description: as §1

[3] = target: T2, 363 human kinases (including Aurora A/B/C) (Homo sapiens, UniProt P21709); details: EPHA1, [ATP] 20 µM; for remaining activity at 0.1 µM: 100 nM; for remaining activity at 0.1 µM / remaining activity at 0.5 µM: read-out: % Enzyme Activity (relative to DMSO controls)
T2 sequence (P21709 26-976): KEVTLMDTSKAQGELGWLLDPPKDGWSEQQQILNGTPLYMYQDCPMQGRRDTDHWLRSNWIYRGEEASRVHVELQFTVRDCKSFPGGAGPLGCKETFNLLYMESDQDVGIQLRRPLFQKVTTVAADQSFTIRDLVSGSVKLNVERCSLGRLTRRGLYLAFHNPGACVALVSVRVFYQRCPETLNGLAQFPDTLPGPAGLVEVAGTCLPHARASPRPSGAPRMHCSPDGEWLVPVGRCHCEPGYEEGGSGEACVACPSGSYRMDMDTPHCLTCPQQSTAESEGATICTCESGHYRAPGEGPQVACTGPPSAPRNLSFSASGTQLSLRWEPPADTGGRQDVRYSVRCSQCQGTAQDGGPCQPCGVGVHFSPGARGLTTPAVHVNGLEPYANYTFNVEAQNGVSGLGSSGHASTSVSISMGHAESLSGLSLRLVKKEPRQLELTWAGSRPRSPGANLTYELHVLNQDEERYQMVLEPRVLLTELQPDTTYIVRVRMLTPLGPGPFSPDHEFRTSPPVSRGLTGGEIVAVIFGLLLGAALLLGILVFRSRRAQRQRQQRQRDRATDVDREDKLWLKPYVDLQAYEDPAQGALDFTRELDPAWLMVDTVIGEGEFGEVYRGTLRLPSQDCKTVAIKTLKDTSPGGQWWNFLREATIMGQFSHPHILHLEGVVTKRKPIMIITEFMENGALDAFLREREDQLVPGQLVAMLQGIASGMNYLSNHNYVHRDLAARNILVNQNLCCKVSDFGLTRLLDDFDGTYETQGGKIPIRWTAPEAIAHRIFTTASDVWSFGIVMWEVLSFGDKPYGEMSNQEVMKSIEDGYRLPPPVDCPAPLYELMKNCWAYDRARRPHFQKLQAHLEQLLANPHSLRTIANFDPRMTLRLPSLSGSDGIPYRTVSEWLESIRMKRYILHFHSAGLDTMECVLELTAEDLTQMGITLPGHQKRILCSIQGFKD
Description: as §1

[4] = target: 363 human kinases (including Aurora A/B/C) (Homo sapiens, UniProt Q9P0L2); details: MARK1; for remaining activity at 0.1 µM: 100 nM; for remaining activity at 0.1 µM / remaining activity at 0.5 µM: read-out: % Enzyme Activity (relative to DMSO controls)
Description: as §1

[5] = target: 363 human kinases (including Aurora A/B/C) (Homo sapiens, UniProt P08581); details: c-MET, [ATP] 30 µM; for remaining activity at 0.1 µM: 100 nM; for remaining activity at 0.1 µM / remaining activity at 0.5 µM: read-out: % Enzyme Activity (relative to DMSO controls)
Sequence of 363 human kinases (including Aurora A/B/C) (Homo sapiens, UniProt P08581) (P08581 25-1390): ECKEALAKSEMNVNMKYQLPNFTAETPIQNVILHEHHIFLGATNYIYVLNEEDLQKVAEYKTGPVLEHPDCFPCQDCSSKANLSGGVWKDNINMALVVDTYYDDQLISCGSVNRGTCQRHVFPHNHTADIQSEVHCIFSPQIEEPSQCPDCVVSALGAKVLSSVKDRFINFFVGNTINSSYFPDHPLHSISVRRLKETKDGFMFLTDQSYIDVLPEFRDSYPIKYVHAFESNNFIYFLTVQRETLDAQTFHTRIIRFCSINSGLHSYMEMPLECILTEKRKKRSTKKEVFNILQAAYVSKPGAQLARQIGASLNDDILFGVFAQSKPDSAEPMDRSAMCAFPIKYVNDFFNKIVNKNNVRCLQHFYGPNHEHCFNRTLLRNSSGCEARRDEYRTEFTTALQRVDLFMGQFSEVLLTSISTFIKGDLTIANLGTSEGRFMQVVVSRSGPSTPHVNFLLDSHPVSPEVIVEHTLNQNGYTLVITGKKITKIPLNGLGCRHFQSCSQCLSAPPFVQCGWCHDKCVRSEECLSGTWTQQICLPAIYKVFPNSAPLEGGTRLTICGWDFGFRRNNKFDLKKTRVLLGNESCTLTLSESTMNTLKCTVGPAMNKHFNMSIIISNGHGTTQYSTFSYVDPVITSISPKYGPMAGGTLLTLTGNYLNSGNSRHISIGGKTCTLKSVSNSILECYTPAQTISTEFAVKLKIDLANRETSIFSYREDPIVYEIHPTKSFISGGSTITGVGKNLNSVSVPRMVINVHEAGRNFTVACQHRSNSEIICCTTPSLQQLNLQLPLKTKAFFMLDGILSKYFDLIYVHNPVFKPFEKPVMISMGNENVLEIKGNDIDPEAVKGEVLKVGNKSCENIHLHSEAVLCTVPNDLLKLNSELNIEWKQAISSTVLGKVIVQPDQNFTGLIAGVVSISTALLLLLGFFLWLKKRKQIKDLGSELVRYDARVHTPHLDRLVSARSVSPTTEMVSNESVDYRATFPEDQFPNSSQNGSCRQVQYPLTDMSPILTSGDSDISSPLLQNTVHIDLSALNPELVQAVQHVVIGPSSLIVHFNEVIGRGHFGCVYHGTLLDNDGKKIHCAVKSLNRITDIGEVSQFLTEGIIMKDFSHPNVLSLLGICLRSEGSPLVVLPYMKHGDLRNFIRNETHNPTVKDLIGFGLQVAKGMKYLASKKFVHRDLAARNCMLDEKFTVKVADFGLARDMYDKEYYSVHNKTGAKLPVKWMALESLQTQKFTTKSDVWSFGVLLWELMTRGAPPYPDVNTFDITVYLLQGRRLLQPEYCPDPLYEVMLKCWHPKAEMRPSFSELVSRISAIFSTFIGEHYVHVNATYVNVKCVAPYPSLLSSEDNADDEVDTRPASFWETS
Description: as §1

Sequence of 363 human kinases (including Aurora A/B/C) (Homo sapiens, UniProt Q9P0L2) (Q9P0L2 whole entry): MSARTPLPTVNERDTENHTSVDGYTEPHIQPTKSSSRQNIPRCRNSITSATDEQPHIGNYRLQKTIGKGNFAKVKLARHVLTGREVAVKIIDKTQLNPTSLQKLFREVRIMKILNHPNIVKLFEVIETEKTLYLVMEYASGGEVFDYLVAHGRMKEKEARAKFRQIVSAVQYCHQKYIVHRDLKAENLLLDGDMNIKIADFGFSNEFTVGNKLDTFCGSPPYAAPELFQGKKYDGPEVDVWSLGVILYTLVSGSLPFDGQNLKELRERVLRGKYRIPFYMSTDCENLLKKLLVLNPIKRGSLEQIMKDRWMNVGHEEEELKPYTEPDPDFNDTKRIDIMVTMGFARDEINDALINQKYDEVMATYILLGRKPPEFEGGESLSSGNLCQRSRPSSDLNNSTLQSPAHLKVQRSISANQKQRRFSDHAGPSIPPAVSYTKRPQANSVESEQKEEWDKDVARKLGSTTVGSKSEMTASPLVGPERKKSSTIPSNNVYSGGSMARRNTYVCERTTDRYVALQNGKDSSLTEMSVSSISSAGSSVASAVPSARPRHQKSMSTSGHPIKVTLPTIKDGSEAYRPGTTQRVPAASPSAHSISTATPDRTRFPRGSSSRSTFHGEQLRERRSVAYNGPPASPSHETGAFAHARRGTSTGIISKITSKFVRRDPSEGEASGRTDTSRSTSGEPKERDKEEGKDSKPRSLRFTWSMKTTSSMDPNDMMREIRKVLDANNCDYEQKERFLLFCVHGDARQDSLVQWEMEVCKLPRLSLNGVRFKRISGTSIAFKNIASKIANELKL
Sequence of 363 human kinases (including Aurora A/B/C) (Homo sapiens, UniProt Q06187) (Q06187 whole entry): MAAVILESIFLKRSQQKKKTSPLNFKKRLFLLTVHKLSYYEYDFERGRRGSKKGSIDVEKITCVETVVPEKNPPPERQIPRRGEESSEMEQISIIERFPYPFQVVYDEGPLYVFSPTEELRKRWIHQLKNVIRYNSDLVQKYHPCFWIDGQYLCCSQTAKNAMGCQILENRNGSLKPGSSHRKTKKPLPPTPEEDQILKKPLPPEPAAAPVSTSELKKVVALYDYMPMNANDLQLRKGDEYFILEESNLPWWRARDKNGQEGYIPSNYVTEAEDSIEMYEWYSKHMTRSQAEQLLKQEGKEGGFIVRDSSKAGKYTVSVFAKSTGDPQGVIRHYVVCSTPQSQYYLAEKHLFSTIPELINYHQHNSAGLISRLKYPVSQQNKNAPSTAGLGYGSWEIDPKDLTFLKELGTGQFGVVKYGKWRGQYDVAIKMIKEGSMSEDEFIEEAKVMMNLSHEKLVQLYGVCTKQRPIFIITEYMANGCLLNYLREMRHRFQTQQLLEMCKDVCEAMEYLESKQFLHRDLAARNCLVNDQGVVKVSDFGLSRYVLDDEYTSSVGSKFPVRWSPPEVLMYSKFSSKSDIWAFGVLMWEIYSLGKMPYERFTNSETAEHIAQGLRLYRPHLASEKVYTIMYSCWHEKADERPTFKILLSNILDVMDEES

| Compound | remaining activity at 0.1 µM [1] [%] | remaining activity at 0.5 µM ([1]; 500 nM) [%] | remaining activity at 0.1 µM [2] [%] | remaining activity at 0.5 µM ([2]; 500 nM) [%] | remaining activity at 0.1 µM [3] [%] | remaining activity at 0.5 µM ([3]; 500 nM) [%] | remaining activity at 0.1 µM [4] [%] | remaining activity at 0.5 µM ([4]; 500 nM) [%] | remaining activity at 0.1 µM [5] [%] | remaining activity at 0.5 µM ([5]; 500 nM) [%] | % Enzyme Activity (relative to DMSO controls) ([1]; 500 nM) [%] | % Enzyme Activity (relative to DMSO controls) ([2]; 500 nM) [%] | % Enzyme Activity (relative to DMSO controls) ([3]; 500 nM) [%] | % Enzyme Activity (relative to DMSO controls) ([4]; 500 nM) [%] | % Enzyme Activity (relative to DMSO controls) ([5]; 500 nM) [%] |
| --- | --- | --- | --- | --- | --- | --- | --- | --- | --- | --- | --- | --- | --- | --- | --- |
| O=C(O)[C@]1(Cc2cccc(Nc3nccs3)n2)CC[C@@H](Oc2cccc(Cl)c2F)CC1 [MK-5108] | 85.6 | 73.8 | 69.8 | 30.2 | 47.6 | 19.1 | 117 | 98.6 | 74.5 | 50.3 | – | – | – | – | – |
| O=C(c1cccc(Cl)c1F)N1CCN(Cc2cccc(Nc3nccs3)n2)CC1 [MK-8745] | – | 78.7 | – | 94.5 | – | 58.3 | – | 96.5 | – | 77.2 | 78.24 | 94.23 | 58.24 | 96.30 | 76.29 |
| CCn1cc(-c2ccnc3[nH]c(-c4cccc(CN(C)C)c4)cc23)c(-c2ccc(NC(=O)N(C)C)cc2)n1 [GSK1070916] | 79.6 | – | 102 | – | 85.1 | – | 93 | – | 84.8 | – | – | – | – | – | – |
